# In patent publication US11109593B2, “Isoxazolin-5-one derivative and herbicide containing same as active ingredient” (HOKKO CHEMICAL INDUSTRY CO., LTD., priority 2017, dated 2021):
# What was measured:
# Type in all cases: in vivo
# Scirpus juncoides [1] = experiment: Test Example 1: herbicidal effect test by treatment of rice paddy soil (immediately after seeding); conditions: 120 g/10a active ingredient, dry weight vs untreated area, 14 days after treatment
# Procedure, shortened: (§1)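 Application occurs immediately after seeding, with diluted emulsion added to paddy water (about 3 cm deep) over puddled, fertilized soil at 120 g active ingredient per 10 ares. Herbicidal rate is calculated from mean dry weight against untreated controls 14 days later.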
# Echinochloa crus-galli [2] = experiment: as above; conditions: 120 g/10a active ingredient, dry weight vs untreated area, 14 days after treatment
# Procedure, shortened: as §1
# [3] = test system: broad leaf weeds (Lindernia pyxidaria and Monochoria vaginalis); experiment: as above; conditions: 120 g/10a active ingredient, dry weight vs untreated area, 14 days after treatment
# Procedure, shortened: as §1
# Scirpus juncoides [4] = experiment: Test Example 2: herbicidal effect test by treatment during growing period in paddy rice cultivation (seven days after seeding); conditions: 120 g/10a active ingredient, assessed 14 days after treatment, dry weight vs untreated area
# Procedure, shortened: (§2)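 Seeds sown 0–1 cm deep in puddled, fertilised paddy soil with about 3 cm standing water in a glass greenhouse. Diluted emulsion dropped into the water seven days after seeding at 120 g active ingredient per 10 ares. Herbicidal rate (%) from mean dry weight vs untreated, duplicate, 14 days after treatment.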
# Echinochloa crus-galli [5] = experiment: as above; conditions: 120 g/10a active ingredient, assessed 14 days after treatment, dry weight vs untreated area
# Procedure, shortened: as §2
# [6] = test system: broad leaf weeds (Lindernia pyxidaria and Monochoria vaginalis); experiment: as above; conditions: 120 g/10a active ingredient, assessed 14 days after treatment, dry weight vs untreated area
# Procedure, shortened: as §2
# Amaranthus viridis [7] = experiment: Test Example 3: herbicidal effect test by treatment of dry field farming soil (one day after seeding); conditions: 120 g/10a active ingredient, evaluated 14 days after treatment
# Procedure, shortened: (§3)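 Alluvial dry-field soil in pots, top 1 cm mixed with 20 seeds per weed species. One day after seeding, the water-diluted emulsion was sprayed onto the soil surface at 100 L per 10 ares (120 g active ingredient per 10 ares). Duplicate pots; herbicidal rate (%) from plant dry weight versus untreated, 14 days after treatment.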
# Chenopodium album [8] = experiment: as above; conditions: 120 g/10a active ingredient, evaluated 14 days after treatment
# Procedure, shortened: as §3
# Echinochloa crus-galli [9] = experiment: as above; conditions: 120 g/10a active ingredient, evaluated 14 days after treatment
# Procedure, shortened: as §3
# southern crabgrass [10] = experiment: as above; conditions: 120 g/10a active ingredient, evaluated 14 days after treatment
# Procedure, shortened: as §3
# Amaranthus viridis [11] = experiment: Test Example 4: herbicidal effect test by treatment of leave and stem in dry field farming (seven days after seeding); conditions: 120 g/10a active ingredient; emulsion sprayed seven days after seeding; evaluated 14 days after treatment
# Procedure, shortened: (§4)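 Weeds were seeded at 20 seeds per species into the top 1 cm of alluvial upland soil in pots, then sprayed 7 days after seeding with water-diluted emulsifiable concentrate at 100 L/10 a, giving 120 g active ingredient/10 a. Duplicate pots; herbicidal rate (%) was 14 days post-treatment, from dry weight versus untreated.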
# Chenopodium album [12] = experiment: as above; conditions: 120 g/10a active ingredient; emulsion sprayed seven days after seeding; evaluated 14 days after treatment
# Procedure, shortened: as §4
# Echinochloa crus-galli [13] = experiment: as above; conditions: 120 g/10a active ingredient; emulsion sprayed seven days after seeding; evaluated 14 days after treatment
# Procedure, shortened: as §4
# southern crabgrass [14] = experiment: as above; conditions: 120 g/10a active ingredient; emulsion sprayed seven days after seeding; evaluated 14 days after treatment
# Procedure, shortened: as §4
SMILES,Herbicidal rate (%) Scirpus juncoides (Scirpus juncoides [1]) [%],Herbicidal rate (%) Echinochloa crus-galli (Echinochloa crus-galli [2]) [%],Herbicidal rate (%) Lindernia pyxidaria [3] [%],Herbicidal rate (%) Monochoria vaginalis [3] [%],Herbicidal rate (%) Scirpus juncoides (Scirpus juncoides [4]) [%],Herbicidal rate (%) Echinochloa crus-galli (Echinochloa crus-galli [5]) [%],Herbicidal rate (%) Lindernia pyxidaria [6] [%],Herbicidal rate (%) Monochoria vaginalis [6] [%],"herbicidal rate, Amaranthus viridis (Amaranthus viridis [7]) [%]","herbicidal rate, Chenopodium album (Chenopodium album [8]) [%]","herbicidal rate, Echinochloa crus-galli (Echinochloa crus-galli [9]) [%]","herbicidal rate, southern crabgrass (southern crabgrass [10]) [%]","herbicidal effect (herbicidal rate), Amaranthus viridis (Amaranthus viridis [11]) [%]","herbicidal effect (herbicidal rate), Chenopodium album (Chenopodium album [12]) [%]","herbicidal effect (herbicidal rate), Echinochloa crus-galli (Echinochloa crus-galli [13]) [%]","herbicidal effect (herbicidal rate), southern crabgrass (southern crabgrass [14]) [%]"
CCC(C)n1oc(=O)c(Cc2ccccc2N(C(=O)C2CC2)S(=O)(=O)C(F)(F)F)c1C (stereo not shown) [Compound 1-404],90,90,90,90,90,90,90,90,90,90,90,90,40,40,90,90
Cc1c(Cc2ccccc2NS(=O)(=O)C(F)(F)F)c(=O)on1C [Compound 1-97],100,100,100,100,90,90,80,60,0,0,90,90,40,40,90,90
CCC(C)n1oc(=O)c(Cc2ccccc2N(S(=O)(=O)CC)S(=O)(=O)C(F)(F)F)c1C (stereo not shown) [Compound 1-913],90,90,90,90,90,90,90,90,90,90,90,90,40,40,90,90
CCS(=O)(=O)N(c1ccccc1Cc1c(C)n(C(C)c2ccccc2)oc1=O)S(=O)(=O)C(F)(F)F (stereo not shown) [Compound 1-917],90,90,90,90,90,90,90,90,90,90,90,90,40,40,90,90
Cc1c(Cc2ccccc2N(S(=O)(=O)C(F)(F)F)S(=O)(=O)C(F)(F)F)c(=O)on1C(c1ccccc1)C(C)C (stereo not shown) [Compound 1-1040],90,100,100,90,70,100,60,60,100,80,100,100,50,40,90,90
Cc1c(Cc2ccccc2N(S(C)(=O)=O)S(=O)(=O)C(F)(F)F)c(=O)on1C(C)(C)C [Compound 1-889],90,90,90,90,90,90,90,90,90,90,90,90,40,40,90,90
COCC(C)n1oc(=O)c(Cc2ccccc2N(C(=O)Oc2ccccc2)S(=O)(=O)C(F)(F)F)c1C (stereo not shown) [Compound 1-765],90,90,90,90,90,90,90,90,90,90,90,90,40,40,90,90
